Results: patent US20260226494A1 (HANGZHOU RUIFENG BIOSCIENCE CO., LTD., priority 2023, published 2026)

What was measured:
[1] = test system: non-transgenic soybean variety Wandou 28; test: Field herbicide tolerance test, single herbicides (Example 7)
Excerpt: (§1) A randomized block design was adopted with a total of 24 plots, each measuring 4 m×5 m. […] A 1 m interval was set between adjacent plots, with three replicates for each soybean type. At the V3 growth stage, the following treatments were applied: 1) no herbicide application; 2) respective applications of glyphosate at 1800 g a.i./ha, MCPA at 1848 g a.i./ha, mesotrione at 123.75 g a.i./ha, penoxsulam at 45 g a.i./ha, nicosulfuron at 102 g a.i./ha, pyrazosulfuron-ethyl at 56.25 g a.i./ha, and flazasulfuron at 112.5 g a.i./ha. Seedling emergence rate, plant height (measured from the tallest 10 plants), and herbicide damage symptoms (evaluated from the 10 plants with the mildest symptoms) were investigated at 1, 2, and 4 weeks post-application. Herbicide damage symptom grading was performed according to GB/f 17980.42-2000. The formula for calculating herbicide damage rate was as follows:
(§2) [formula] • (×-herbicide damage rate in percentage; N-number of plants with the same level of herbicide damage; S-herbicide damage level; T-total number of plants evaluated; M-highest level)∘

[2] = test system: transgenic soybean event XP-2; test: as above; settings: for tolerance level of transgenic soybean event XP-2 to herbicides (in words): field test, Table 10 doses
Excerpt: as §1, §2

[3] = test system: T1 generation of five transformation events (XP-2, XP-195, XP-325, XP-326, XP-552); parameters: species or system Glycine max; settings: in vivo
Excerpt: At the V4 stage, 225 g a.i./ha of flazasulfuron was sprayed, and the tolerance of each transformant was observed.

[4] = test system: T1 generation soybean transgenic events; settings: in vivo
[5] = test system: T1 generation soybean transgenic events; test: Flazasulfuron tolerance test on progeny of 54 single-copy events; parameters: dose or concentration left out as unconfirmed; settings: […] g a.i./ha
[6] = test system: T0 transgenic soybean plants; test: Greenhouse glyphosate spray screen of T0 transgenic events; type: in vivo, Glycine max; settings: 1800 g a.i./ha sprayed at V4 stage; 546 T0 events
Excerpt: After hardening, 685 T0 generation transgenic events obtained from Example 1 were transplanted into natural soil in a greenhouse. Among them, 546 seedlings successfully survived in the greenhouse. When the T0 transgenic soybean plants reached the V4 vegetative stage, 1800 g a.i/ha ofglyphosate was sprayed.

[7] = Wandou 28, 1 week after spraying at V3, doses as Table 10 c1
[8] = Wandou 28, 2 weeks after spraying at V3, doses as Table 10 c1
[9] = Wandou 28, 4 weeks after spraying at V3, doses as Table 10 c1
[10] = XP-2, 2 weeks after spraying at V3, doses as Table 10 c1
[11] = XP-2, 4 weeks after spraying at V3, doses as Table 10 c1

Row | Compound | damage rate(%) After 1 week [1, 7] | damage rate(%) After 2 weeks [1, 8] | damage rate(%) After 4 weeks [1, 9] | Height(cm) After 2 weeks [2, 10] | damage rate(%) After 2 weeks [2, 10] | Height(cm) After 4 weeks [2, 11] | damage rate(%) After 4 weeks [2, 11] | tolerance level of transgenic soybean event XP-2 to herbicides (in words) [2] | also measured
1 | COc1cc(OC)nc(NC(=O)NS(=O)(=O)c2ncccc2C(F)(F)F)n1 [Flazasulfuron, flazasulfuron] |  |  |  |  |  |  |  |  | Seedling rate % ([1]; in vivo): 0%; damage rate(%) After 1 week ([1]; in vivo): 100%; damage rate(%) After 2 weeks ([1]; in vivo): 100%; damage rate(%) After 4 weeks ([1]; in vivo): 100%; Height(cm) After 1 week ([2]; in vivo): 12.49 ± 0.35 cm; Height(cm) After 2 weeks ([2]; in vivo): 14.74 ± 0.2 cm; Height(cm) After 4 weeks ([2]; in vivo): 21.69 ± 0.32 cm; Seedling rate % ([2]; in vivo): 100%; damage rate(%) After 1 week ([2]; in vivo): 0%; damage rate(%) After 2 weeks ([2]; in vivo): 0%; damage rate(%) After 4 weeks ([2]; in vivo): 0%; tolerance of each transformant (in words) [3]: XP-2 exhibited the highest tolerance; Number of Events: No phytotoxicity [4]: 5; Number of Events: having phytotoxicity, New leaves getting yellow [4]: 49; Number of Events: Plant death [5]: 0
2 | O=C(O)CNCP(=O)(O)O [Glyphosate, glyphosate] | 100% | 100% | 100% | 14.58 ± 0.24 cm | 0% | 21.6 ± 0.52 cm | 0% | high tolerance | Number of Events: Growth stunted, dwarfed plants (phytotoxicity) [6]: 327; Number of Events: Plant death [6]: 132; Number of Events: no phytotoxicity [6]: 87
3 | Cc1cc(Cl)ccc1OCC(=O)O [MCPA] | 100% | 100% | 100% | 14.7 ± 0.32 cm | 0% | 21.6 ± 0.52 cm | 0% | high tolerance | 
4 | CS(=O)(=O)c1ccc(C(=O)C2C(=O)CCCC2=O)c([N+](=O)[O-])c1 [Mesotrione, mesotrione] | 100% | 100% | 100% | 14.59 ± 0.24 cm | 0% | 21.63 ± 0.52 cm | 0% | high tolerance | 
5 | COc1cc(OC)nc(NC(=O)NS(=O)(=O)c2ncccc2C(=O)N(C)C)n1 [Nicosulfuron, nicosulfuron] | 100% | 100% | 100% | 14.73 ± 0.24 cm | 0% | 21.66 ± 0.53 cm | 0% | high tolerance | 
6 | COc1cnc(OC)n2nc(NS(=O)(=O)c3c(OCC(F)F)cccc3C(F)(F)F)nc12 [Penoxsulam, penoxsulam] |  |  |  |  |  |  |  |  | Seedling rate % ([1]; in vivo): 0%; damage rate(%) After 1 week ([1]; in vivo): 100%; damage rate(%) After 2 weeks ([1]; in vivo): 100%; damage rate(%) After 4 weeks ([1]; in vivo): 100%; Height(cm) After 1 week ([2]; in vivo): 12.75 ± 1.01 cm; Height(cm) After 2 weeks ([2]; in vivo): 14.6 ± 0.24 cm; Height(cm) After 4 weeks ([2]; in vivo): 21.61 ± 0.52 cm; Seedling rate % ([2]; in vivo): 100%; damage rate(%) After 1 week ([2]; in vivo): 0%; damage rate(%) After 2 weeks ([2]; in vivo): 0%; damage rate(%) After 4 weeks ([2]; in vivo): 0%
7 | CCOC(=O)c1cnn(C)c1S(=O)(=O)NC(=O)Nc1nc(OC)cc(OC)n1 [Pyrazosulfuron-ethyl, pyrazosulfuron-ethyl] | 100% | 100% | 100% | 14.6 ± 0.24 cm | 0% | 21.63 ± 0.52 cm | 0% | high tolerance | 
